We go through three compounds from patent US20240066065A1, “PLATELET DERIVATIVES FOR TREATING COAGULOPATHY” (Cellphire, Inc., priority 2019, published 2024).

For experiment [1], the system named is whole blood. Nature of the experiment: T-TAS thrombus formation under flow, AR chip (collagen+TF), rivaroxaban-anticoagulated whole blood. The class given is cell-based, human. The source says:
(§1) In the Total Thrombus-formation Analysis System (T-TAS®, FUJIMORI KOGYO CO., LTD), the sample is forced through collagen-coated microchannels using mineral oil. Changes in pressure are used to assess thrombus formation. The Occlusion Start Time is time it takes to reach 10 kPa, and the Occlusion Time=time it takes to each Δ80 kPa using an AR chip (e.g., Zacros Item No, TC0101). According to the manufacturer, an AR chip can be used for analyzing the formation of a mixed white thrombus consisting chiefly of fibrin and activated platelets. It has a flow path (300 μm wide by 50 μm high) coated with collagen and tissue factors and can be used to analyze the clotting function and platelet function. In comparison, a PL chip can be used for analyzing the formation of a platelet thrombus consisting chiefly of activated platelets. A PL chip has a flow path coated with collagen only and can be used to analyze the platelet function.
Rivaroxaban (sometimes herein called Riv) dose-response in whole blood was measured using T-TAS®. An AR chip (Collagen+TF) was used. T-TAS® assays were performed according to Example 3. The donor platelets were used at 307k/μL.
Thrombosomes were prepared consistent with the procedures described in U.S. Pat. No. 8,486,617 (such as, e.g., Examples 1-5) and U.S. Pat. No. 8,097,403 (such as, e.g., Examples 1-3), and rehydrated by addition of sterile water. T-TAS® assays were run according to Example 3 using 3 μM rivaroxaban and different concentrations of thrombosomes (FIG. 10A, Table 8). The ‘No Riv’ vertical line indicates the approximate occlusion time of a sample with no added rivaroxaban.

The subject of experiment [2] is Platelet rich plasma. Nature of the experiment: T-TAS flow system (collagen and tissue factor coated channel), rivaroxaban-treated platelet rich plasma. Format: cell-based, human. The note with it: 3 μM rivaroxaban (6.04 without).
From the text: as §1
In a similar experiment, T-TAS® assays were run according to Example 3 with no rivaroxaban, 3 μM rivoroxaban, and 3 μM rivoroxaban and 300×10^3/μL thrombosomes. Platelet rich plasma that was treated with 3 μM rivaroxaban extended occlusion times from 6.04 to 26.01 minutes on the T-TAS® flow system (collagen and tissue factor coated channel).

Experiment [3] concerns heparinized plasma. Briefly: Thrombin generation assay in heparinized George King Plasma. The class given is biochemical, human. The note with it: 2 U/mL heparin, 20 μg/mL protamine sulfate, thrombosomes 5K, 50K, 150K per μL. As to the method: Thrombosomes were prepared consistent with the procedures described in U.S. Pat. No. 8,486,617 (such as, e.g., Examples 1-5) and U.S. Pat. No.8,097,403 (such as, e.g., Examples 1-3), and rehydrated by addition of sterile water. aPTT and thrombin generation assays were performed as described in Example 3. […] The dashed line at approximately 70 seconds denotes the limit of abnormal aPTT and the second dashed line is the maximum time measured by the instrument (120 sec). Thrombin generation in heparin treated samples was also measured. […] The dashed line in FIGS. 23B and 23C denotes a typical thrombin peak value seen in this assay for control plasma.
The dashed line at approximately 70 seconds denotes the limit of abnormal aPTT and the second dashed line is the maximum time measured by the instrument (120 sec). Thrombin generation in heparin treated samples was also measured, with and without protamine sulfate. […] The dashed line in FIGS. 24B and 24C enotes a typical thrombin peak value seen in this assay for control plasma.

The test system of experiment [4] is dabigatran treated PRP. The note with it: dabigatran 100 ng/mL (18.89 untreated).
Experimental: • (1) Open CAT software; set up instrument; and prepare PRP reagent (including Tissue Factor and some phospholipids), calibrator, and fluoro-buffer according to manufacturer guidelines. • (2) Thaw warfarin or control plasma in 37° C. water bath for 5 minutes. • (3) Rehydrate thrombosomes with cell culture grade water for 10 minutes then dilute with Control Buffer to double target concentration. • (4) For each sample, combine 1:1 volumes of Control Buffer with or without thrombosomes and plasma. • (5) Using a multichannel pipette, add 20 μL of PRP reagent to each well. • (6) Add 80 μL of sample per well.

Take `O=C(NC[C@H]1CN(c2ccc(N3CCOCC3=O)cc2)C(=O)O1)c1ccc(Cl)s1` [rivaroxaban]: the AUC came to 1686 kPa*min in experiment [1] (1 uM rivaroxaban), 423 kPa*min in experiment [1] (3 uM rivaroxaban) and 13.6 kPa*min in experiment [1] (9 uM rivaroxaban). In addition, the “Occ Spd” value is reported as 20.9 kPa/min in experiment [1] (1 uM rivaroxaban) and 28.2 kPa/min in experiment [1] (3 uM rivaroxaban). In addition, the “occlusion and thrombus formation” value in experiment [1] (9 μM rivaroxaban (a pharmacological dose)) was “inhibits occlusion but not all thrombus formation”. In experiment [2], this compound registered an occlusion time of 26.01 min.

On to Protamine Sulfate, for which the “thrombosome-mediated thrombin generation after heparin reversal” value in experiment [3] is “Restores Thrombosome-Mediated Thrombin Generation”.

dabigatran had a Time to peak in experiment [4] of 34.67 min.
